Test results published in patent US20240228480A1, “PROCESSES FOR PREPARING PYRROLOPYRIDINE-ANILINE COMPOUNDS” (NFLECTION THERAPEUTICS, INC., priority 2021, published 2024).
Entries after “also recorded” stand apart in the source; their conditions may differ.

Key:
[1] = Stability of Compound (II) suspended in various solvents (slurry experiment, HPLC area %); assay type: physicochemical
Text: Therefore, the first course of action was to find a suitable solvent in which to suspend compound (II) for the addition to the first mixture of step 6a).

[2] = clinical trials; cited from earlier work

Cn1c(Nc2ccc(I)cc2F)c(C(=O)Cl)c2cccnc21 [Compound (II)]
Area % t = 10 min ([1]; solvent 2-Me-THF): 88.0 Area %
Area % t = 2 h ([1]; solvent 2-Me-THF): 77.8 Area %
Area % t = 17 h ([1]; solvent 2-Me-THF): 75.3 Area %
Area % t = 10 min ([1]; solvent DCM): 91.4 Area %
Area % t = 2 h ([1]; solvent DCM): 90.5 Area %
Area % t = 17 h ([1]; solvent DCM): 85.3 Area %
Area % t = 10 min ([1]; solvent Heptane): *68.6 Area %
Area % t = 2 h ([1]; solvent Heptane): 88.4 Area %
Area % t = 17 h ([1]; solvent Heptane): 91.8 Area %
Area % t = 10 min ([1]; solvent IPAc): *81.6 Area %
Area % t = 2 h ([1]; solvent IPAc): 93.3 Area %
Area % t = 17 h ([1]; solvent IPAc): 90.4 Area %
Area % t = 10 min ([1]; solvent MTBE): 92.9 Area %
Area % t = 2 h ([1]; solvent MTBE): *81.6 Area %
Area % t = 17 h ([1]; solvent MTBE): 87.2 Area %
Area % t = 10 min ([1]; solvent MeCN): 87.4 Area %
Area % t = 2 h ([1]; solvent MeCN): 79.2 Area %
Area % t = 17 h ([1]; solvent MeCN): 65.5 Area %
Area % t = 10 min ([1]; solvent THF): 90.0 Area %
Area % t = 2 h ([1]; solvent THF): 83.7 Area %
Area % t = 17 h ([1]; solvent THF): 63.7 Area %
Decomposition when suspended in THF ([1]; suspended in THF for a period of time (e.g., >10 h)): Decomposition of compound (II) was found to occur

O=C(NOC[C@H](O)CO)c1ccc(F)c(F)c1Nc1ccc(I)cc1F [PD0325901]
Side effects exhibited [2]: neurological side effects associated with ataxia, confusion, and syncope; also recorded: one or more neurological side effects associated with ataxia, confusion, and syncope
